Measured values reported in the supplement of paper PMC10883282.
± gives the standard deviation of the averaged measurements.

Assays:
Test in all cases: relative viability vs DMSO control (72 h) (fraction); higher = more viable cells
G401 = system: G401
In short: (§1)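 After seeding at densities set for 80–90% confluence in 384-well plates, sarcoma cell lines waited 24 h before 2.5 µl of serially diluted compound was added. Source plates held 10 mM down to 0.0002 mM. Plates were incubated 72 h at 37 °C with 5% CO2, with 0.1% DMSO vehicle and a 5 µM positive control, and relative viability was taken from ATPLite as percent growth averaged over up to triplicate wells, with 1 set as full and 0 as none.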

SK-LMS-1 = system: SK-LMS-1
In short: as §1

MES-SA = system: MES-SA
In short: as §1

SW872 = system: SW872
In short: as §1

SYO-1 = system: SYO-1
In short: as §1

A204 = system: A204
In short: as §1

SK-ES-1 = system: SK-ES-1
In short: as §1

VA-ES-BJ = system: VA-ES-BJ
In short: as §1

SW684 = system: SW684
In short: as §1

KHOS-NP = system: KHOS-NP
In short: as §1

RD = system: RD
In short: as §1

HS729 = system: HS729
In short: as §1

CC(C)(C)c1nc(-c2cccc(NS(=O)(=O)c3c(F)cccc3F)c2F)c(-c2ccnc(N)n2)s1 [Dabrafenib]
relative viability (G401; 0.00017 µM): 0.982 ± 0.055 | relative viability (G401; 0.00051 µM): 0.994 ± 0.13 | relative viability (G401; 0.00152 µM): 0.916 ± 0.12 | relative viability (G401; 0.00457 µM): 0.937 ± 0.079 | relative viability (G401; 0.01372 µM): 0.949 ± 0.066 | relative viability (G401; 0.04115 µM): 0.955 ± 0.034 | relative viability (G401; 0.1235 µM): 0.929 ± 0.042 | relative viability (G401; 0.3704 µM): 0.857 ± 0.11 | relative viability (G401; 1.111 µM): 0.768 ± 0.033 | relative viability (G401; 3.333 µM): 0.781 ± 0.034 | relative viability (G401; 10 µM): 0.814 ± 0.048 | relative viability (SK-LMS-1; 0.00017 µM): 1.07 ± 0.1 | relative viability (SK-LMS-1; 0.00051 µM): 1.06 ± 0.052 | relative viability (SK-LMS-1; 0.00152 µM): 1.05 ± 0.076 | relative viability (SK-LMS-1; 0.00457 µM): 1.02 ± 0.026 | relative viability (SK-LMS-1; 0.01372 µM): 0.964 ± 0.036 | relative viability (SK-LMS-1; 0.04115 µM): 0.84 ± 0.021 | relative viability (SK-LMS-1; 0.1235 µM): 0.7165 ± 0.0052 | relative viability (SK-LMS-1; 0.3704 µM): 0.586 ± 0.031 | relative viability (SK-LMS-1; 1.111 µM): 0.607 ± 0.04 | relative viability (SK-LMS-1; 3.333 µM): 0.691 ± 0.022 | relative viability (SK-LMS-1; 10 µM): 0.557 ± 0.037 | relative viability (MES-SA; 0.00017 µM): 0.944 ± 0.037 | relative viability (MES-SA; 0.00051 µM): 0.921 ± 0.067 | relative viability (MES-SA; 0.00152 µM): 0.908 ± 0.023 | relative viability (MES-SA; 0.00457 µM): 0.905 ± 0.061 | relative viability (MES-SA; 0.01372 µM): 0.909 ± 0.041 | relative viability (MES-SA; 0.04115 µM): 0.883 ± 0.014 | relative viability (MES-SA; 0.1235 µM): 0.733 ± 0.056 | relative viability (MES-SA; 0.3704 µM): 0.53 ± 0.043 | relative viability (MES-SA; 1.111 µM): 0.504 ± 0.021 | relative viability (MES-SA; 3.333 µM): 0.744 ± 0.079 | relative viability (MES-SA; 10 µM): 0.745 ± 0.11 | relative viability (SW872; 0.00017 µM): 1.08 ± 0.068 | relative viability (SW872; 0.00051 µM): 1.01 ± 0.076 | relative viability (SW872; 0.00152 µM): 0.907 ± 0.071 | relative viability (SW872; 0.00457 µM): 0.821 ± 0.066 | relative viability (SW872; 0.01372 µM): 0.614 ± 0.033 | relative viability (SW872; 0.04115 µM): 0.558 ± 0.035 | relative viability (SW872; 0.1235 µM): 0.525 ± 0.021 | relative viability (SW872; 0.3704 µM): 0.463 ± 0.042 | relative viability (SW872; 1.111 µM): 0.412 ± 0.028 | relative viability (SW872; 3.333 µM): 0.398 ± 0.024 | relative viability (SW872; 10 µM): 0.334 ± 0.021 | relative viability (SYO-1; 0.00017 µM): 0.985 ± 0.032 | relative viability (SYO-1; 0.00051 µM): 0.9278 ± 0.0021 | relative viability (SYO-1; 0.00152 µM): 0.926 ± 0.041 | relative viability (SYO-1; 0.00457 µM): 0.911 ± 0.064 | relative viability (SYO-1; 0.01372 µM): 0.92 ± 0.039 | relative viability (SYO-1; 0.04115 µM): 0.919 ± 0.044 | relative viability (SYO-1; 0.1235 µM): 0.898 ± 0.062 | relative viability (SYO-1; 0.3704 µM): 0.939 ± 0.095 | relative viability (SYO-1; 1.111 µM): 0.857 ± 0.061 | relative viability (SYO-1; 3.333 µM): 0.871 ± 0.08 | relative viability (SYO-1; 10 µM): 0.816 ± 0.048 | relative viability (A204; 0.00017 µM): 1 ± 0.076 | relative viability (A204; 0.00051 µM): 1.04 ± 0.026 | relative viability (A204; 0.00152 µM): 1.04 ± 0.025 | relative viability (A204; 0.00457 µM): 1.04 ± 0.013 | relative viability (A204; 0.01372 µM): 1.05 ± 0.025 | relative viability (A204; 0.04115 µM): 0.978 ± 0.049 | relative viability (A204; 0.1235 µM): 0.938 ± 0.1 | relative viability (A204; 0.3704 µM): 0.843 ± 0.043 | relative viability (A204; 1.111 µM): 0.76 ± 0.011 | relative viability (A204; 3.333 µM): 0.69 ± 0.043 | relative viability (A204; 10 µM): 0.614 ± 0.085 | relative viability (SK-ES-1; 0.00017 µM): 1.01 ± 0.07 | relative viability (SK-ES-1; 0.00051 µM): 1.04 ± 0.058 | relative viability (SK-ES-1; 0.00152 µM): 1 ± 0.041 | relative viability (SK-ES-1; 0.00457 µM): 1.02 ± 0.065 | relative viability (SK-ES-1; 0.01372 µM): 0.987 ± 0.065 | relative viability (SK-ES-1; 0.04115 µM): 0.927 ± 0.043 | relative viability (SK-ES-1; 0.1235 µM): 0.794 ± 0.055 | relative viability (SK-ES-1; 0.3704 µM): 0.524 ± 0.044 | relative viability (SK-ES-1; 1.111 µM): 0.368 ± 0.013 | relative viability (SK-ES-1; 3.333 µM): 0.41 ± 0.01 | relative viability (VA-ES-BJ; 0.00017 µM): 1.02 ± 0.035 | relative viability (VA-ES-BJ; 0.00051 µM): 1.02 ± 0.051 | relative viability (VA-ES-BJ; 0.00152 µM): 1.06 ± 0.05 | relative viability (VA-ES-BJ; 0.00457 µM): 1.05 ± 0.019 | relative viability (VA-ES-BJ; 0.01372 µM): 1.07 ± 0.027 | relative viability (VA-ES-BJ; 0.04115 µM): 1.02 ± 0.068 | relative viability (VA-ES-BJ; 0.1235 µM): 1.01 ± 0.044 | relative viability (VA-ES-BJ; 0.3704 µM): 0.82 ± 0.024 | relative viability (VA-ES-BJ; 1.111 µM): 0.646 ± 0.035 | relative viability (VA-ES-BJ; 3.333 µM): 0.654 ± 0.024 | relative viability (VA-ES-BJ; 10 µM): 0.5821 ± 0.0047 | relative viability (SW684; 0.00017 µM): 1.13 ± 0.0094 | relative viability (SW684; 0.00051 µM): 1.09 ± 0.029 | relative viability (SW684; 0.00152 µM): 1.129 ± 0.0055 | relative viability (SW684; 0.00457 µM): 1.18 ± 0.058 | relative viability (SW684; 0.01372 µM): 1.13 ± 0.042 | relative viability (SW684; 0.04115 µM): 1.12 ± 0.037 | relative viability (SW684; 0.1235 µM): 1.13 ± 0.026 | relative viability (SW684; 0.3704 µM): 1.025 ± 0.0046 | relative viability (SW684; 1.111 µM): 0.953 ± 0.026 | relative viability (SW684; 3.333 µM): 1.09 ± 0.069 | relative viability (SW684; 10 µM): 1.16 ± 0.016 | relative viability (KHOS-NP; 0.00017 µM): 1.09 ± 0.017 | relative viability (KHOS-NP; 0.00051 µM): 1.07 ± 0.014 | relative viability (KHOS-NP; 0.00152 µM): 1.05 ± 0.013 | relative viability (KHOS-NP; 0.00457 µM): 0.995 ± 0.025 | relative viability (KHOS-NP; 0.01372 µM): 1.01 ± 0.034 | relative viability (KHOS-NP; 0.04115 µM): 1.03 ± 0.024 | relative viability (KHOS-NP; 0.1235 µM): 1.01 ± 0.017 | relative viability (KHOS-NP; 0.3704 µM): 0.901 ± 0.032 | relative viability (KHOS-NP; 1.111 µM): 0.743 ± 0.045 | relative viability (KHOS-NP; 3.333 µM): 0.522 ± 0.015 | relative viability (KHOS-NP; 10 µM): 0.303 ± 0.014 | relative viability (RD; 0.00017 µM): 1.07 ± 0.046 | relative viability (RD; 0.00051 µM): 1.07 ± 0.07 | relative viability (RD; 0.00152 µM): 1.07 ± 0.04 | relative viability (RD; 0.00457 µM): 1.11 ± 0.074 | relative viability (RD; 0.01372 µM): 1.12 ± 0.064 | relative viability (RD; 0.04115 µM): 1.1 ± 0.071 | relative viability (RD; 0.1235 µM): 1.1 ± 0.099 | relative viability (RD; 0.3704 µM): 0.989 ± 0.11 | relative viability (RD; 1.111 µM): 0.915 ± 0.11 | relative viability (RD; 3.333 µM): 0.871 ± 0.071 | relative viability (RD; 10 µM): 0.846 ± 0.1 | relative viability (HS729; 0.00017 µM): 0.958 ± 0.027 | relative viability (HS729; 0.00051 µM): 0.949 ± 0.073 | relative viability (HS729; 0.00152 µM): 0.867 ± 0.1 | relative viability (HS729; 0.00457 µM): 0.85 ± 0.043 | relative viability (HS729; 0.01372 µM): 0.84 ± 0.035 | relative viability (HS729; 0.04115 µM): 0.844 ± 0.048 | relative viability (HS729; 0.1235 µM): 0.774 ± 0.046 | relative viability (HS729; 0.3704 µM): 0.659 ± 0.051 | relative viability (HS729; 1.111 µM): 0.63 ± 0.026 | relative viability (HS729; 3.333 µM): 0.683 ± 0.032 | relative viability (HS729; 10 µM): 0.811 ± 0.012
